Test results as given in patent publication US10597388B2, “Pyridazinone herbicides” (FMC CORPORATION, priority 2014, dated 2020).

Columns and labels:
Type in all cases: in vivo
[1] = test system: corn (Zea mays); test: Test E greenhouse herbicide test, pre- and postemergence
How it was run: (§1)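 Scores (0–100, visual, vs controls) reflect greenhouse growth of 14 to 21 d after treatment. Application was pre-emergence to silt loam or post-emergence at the 1- to 4-leaf stage.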

[2] = test system: crabgrass, Brazilian (Brazilian crabgrass, Digitaria horizontalis); test: as above
How it was run: as §1

[3] = test system: crabgrass, large (large crabgrass, Digitaria sanguinalis); test: as above; details: Preemergence
How it was run: as §1

[4] = test system: dayflower (Virginia (VA) dayflower, Commelina virginica); test: as above
How it was run: as §1

[5] = test system: foxtail, giant (giant foxtail, Setaria faberii); test: as above; details: Preemergence
How it was run: as §1

[6] = test system: foxtail, green (green foxtail, Setaria viridis); test: as above; details: Preemergence
How it was run: as §1

[7] = test system: johnsongrass (Sorghum halepense); test: as above; details: Preemergence
How it was run: as §1

[8] = test system: kochia (Kochia scoparia); test: as above
How it was run: as §1

[9] = test system: lambsquarters (Chenopodium album); test: as above; details: Preemergence
How it was run: as §1

[10] = test system: nutsedge, yellow (yellow nutsedge, Cyperus esculentus); test: as above; details: Preemergence
How it was run: as §1

[11] = test system: panicum, fall (fall panicum, Panicum dichotomiflorum); test: as above
How it was run: as §1

[12] = test system: pigweed, palmer (palmer pigweed, Amaranthus palmeri); test: as above
How it was run: as §1

[13] = test system: sandbur (southem sandbur, Cenchrus echinatus); test: as above
How it was run: as §1

[14] = test system: soybean (Glycine max); test: as above
How it was run: as §1

[15] = test system: velvetleaf (Abutilon theophrasti); test: as above; details: Preemergence
How it was run: as §1

[16] = test system: waterhemp_RES1 (ALS & Triazine resistant common waterhemp, Amaranthus rudis); test: Test E greenhouse herbicide test, postemergence
How it was run: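 Values are visual ratings from 0 (no effect) to 100 (complete control), scored relative to untreated controls 14 to 21 d after treatment. Plants were 1- to 4-leaf seedlings (2 to 18 cm) in potting medium and received postemergence applications of formulated test chemicals.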

[17] = 62 g ai/ha, Postemergence, scale 0 to 100 (0 no effect, 100 complete control)
[18] = 62 g ai/ha, Preemergence, scale 0 to 100 (0 no effect, 100 complete control)
[19] = 125 g ai/ha, Postemergence, scale 0 to 100 (0 no effect, 100 complete control)
[20] = 125 g ai/ha, Preemergence, scale 0 to 100 (0 no effect, 100 complete control)
[21] = 250 g ai/ha, Postemergence, scale 0 to 100 (0 no effect, 100 complete control)
[22] = Postemergence, 31 g ai/ha, visual, scale 0 no effect to 100 complete control
[23] = Preemergence, 31 g ai/ha, scale 0 to 100, 0 no effect, 100 complete control
[24] = Preemergence, 250 g ai/ha, visual, scale 0 no effect to 100 complete control
[25] = 62 g ai/ha, scale 0 to 100 (0 no effect, 100 complete control)
[26] = 125 g ai/ha, scale 0 to 100 (0 no effect, 100 complete control)
[27] = 31 g ai/ha, scale 0 to 100, 0 no effect, 100 complete control
[28] = 250 g ai/ha, visual, scale 0 no effect to 100 complete control

Cc1ccc2ccccc2c1-c1c(OC(=O)OC(C)C)c(C)nn(C)c1=O [Compound 72]
Plant response rating, Corn [1, 17]: 10
Plant response rating, Corn [1, 18]: 0
Plant response rating, Corn [1, 19]: 20
Plant response rating, Corn [1, 20]: 0
Plant response rating, Corn [1, 21]: 30
Plant response rating, Corn [1, 22]: 0
Plant response rating, Corn [1, 23]: 0
Plant response rating, Corn [1, 24]: 0
Plant response rating, Crabgrass, Brazil [2, 17]: 40
Plant response rating, Crabgrass, Brazil [2, 18]: 60
Plant response rating, Crabgrass, Brazil [2, 19]: 60
Plant response rating, Crabgrass, Brazil [2, 20]: 90
Plant response rating, Crabgrass, Brazil [2, 21]: 70
Plant response rating, Crabgrass, Brazil [2, 22]: 50
Plant response rating, Crabgrass, Brazil [2, 23]: 50
Plant response rating, Crabgrass, Brazil [2, 24]: 98
Plant response rating, Crabgrass, Large [3, 25]: 0
Plant response rating, Crabgrass, Large [3, 26]: 30
Plant response rating, Crabgrass, Large [3, 27]: 0
Plant response rating, Crabgrass, Large [3, 28]: 90
Plant response rating, Dayflower, VA [4, 17]: 65
Plant response rating, Dayflower, VA [4, 18]: 15
Plant response rating, Dayflower, VA [4, 19]: 80
Plant response rating, Dayflower, VA [4, 20]: 50
Plant response rating, Dayflower, VA [4, 21]: 80
Plant response rating, Dayflower, VA [4, 22]: 60
Plant response rating, Dayflower, VA [4, 23]: 0
Plant response rating, Dayflower, VA [4, 24]: 50
Plant response rating, Foxtail, Giant [5, 25]: 65
Plant response rating, Foxtail, Giant [5, 26]: 70
Plant response rating, Foxtail, Giant [5, 27]: 35
Plant response rating, Foxtail, Giant [5, 28]: 80
Plant response rating, Foxtail, Green [6, 25]: 35
Plant response rating, Foxtail, Green [6, 26]: 65
Plant response rating, Foxtail, Green [6, 27]: 30
Plant response rating, Foxtail, Green [6, 28]: 70
Plant response rating, Johnsongrass [7, 25]: 0
Plant response rating, Johnsongrass [7, 26]: 35
Plant response rating, Johnsongrass [7, 27]: 0
Plant response rating, Johnsongrass [7, 28]: 35
Plant response rating, Kochia [8, 17]: 98
Plant response rating, Kochia [8, 18]: 35
Plant response rating, Kochia [8, 19]: 90
Plant response rating, Kochia [8, 20]: 60
Plant response rating, Kochia [8, 21]: 90
Plant response rating, Kochia [8, 22]: 70
Plant response rating, Kochia [8, 23]: 25
Plant response rating, Kochia [8, 24]: 98
Plant response rating, Lambsquarters [9, 25]: 80
Plant response rating, Lambsquarters [9, 26]: 100
Plant response rating, Lambsquarters [9, 27]: 90
Plant response rating, Lambsquarters [9, 28]: 100
Plant response rating, Nutsedge, Yellow [10, 25]: 20
Plant response rating, Nutsedge, Yellow [10, 26]: 30
Plant response rating, Nutsedge, Yellow [10, 28]: 35
Plant response rating, Panicum, Fall [11, 17]: 80
Plant response rating, Panicum, Fall [11, 18]: 80
Plant response rating, Panicum, Fall [11, 19]: 80
Plant response rating, Panicum, Fall [11, 20]: 90
Plant response rating, Panicum, Fall [11, 21]: 85
Plant response rating, Panicum, Fall [11, 22]: 75
Plant response rating, Panicum, Fall [11, 23]: 75
Plant response rating, Panicum, Fall [11, 24]: 98
Plant response rating, Pigweed, Palmer [12, 17]: 50
Plant response rating, Pigweed, Palmer [12, 18]: 75
Plant response rating, Pigweed, Palmer [12, 19]: 60
Plant response rating, Pigweed, Palmer [12, 20]: 95
Plant response rating, Pigweed, Palmer [12, 21]: 75
Plant response rating, Pigweed, Palmer [12, 22]: 50
Plant response rating, Pigweed, Palmer [12, 23]: 35
Plant response rating, Pigweed, Palmer [12, 24]: 90
Plant response rating, Sandbur [13, 17]: 70
Plant response rating, Sandbur [13, 18]: 35
Plant response rating, Sandbur [13, 19]: 75
Plant response rating, Sandbur [13, 20]: 60
Plant response rating, Sandbur [13, 21]: 80
Plant response rating, Sandbur [13, 22]: 60
Plant response rating, Sandbur [13, 23]: 0
Plant response rating, Sandbur [13, 24]: 70
Plant response rating, Soybean [14, 17]: 30
Plant response rating, Soybean [14, 18]: 0
Plant response rating, Soybean [14, 19]: 30
Plant response rating, Soybean [14, 20]: 0
Plant response rating, Soybean [14, 21]: 50
Plant response rating, Soybean [14, 22]: 25
Plant response rating, Soybean [14, 23]: 0
Plant response rating, Soybean [14, 24]: 15
Plant response rating, Velvetleaf [15, 25]: 40
Plant response rating, Velvetleaf [15, 26]: 80
Plant response rating, Velvetleaf [15, 27]: 50
Plant response rating, Velvetleaf [15, 28]: 90
Plant response rating, Waterhemp_RES1 ([16]; 31 g ai/ha, visual, scale 0 no effect to 100 complete control): 60
Plant response rating, Waterhemp_RES1 [16, 25]: 80
Plant response rating, Waterhemp_RES1 [16, 26]: 80
Plant response rating, Waterhemp_RES1 ([16]; 250 g ai/ha, scale 0 to 100 (0 no effect, 100 complete control)): 90
